Measured values reported in PubChem BioAssay (NCI).
Several values for one entry are separate records, joined by “and”; a condition that tells them apart may be missing. Equal values may be shown once.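 Tested at 5 concentrations; 48 h exposure; 96-well plates; endpoints linearly interpolated, else capped at highest concentration. Abbreviation: GI50, concentration required for 50% inhibition of growth. Definition used: TGI = concentration required for complete inhibition of growth.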

How the values were obtained:
Experiment in all cases: NCI tumour cell line growth inhibition, 48 h
[1] = tested on: RPMI-8226 leukemia
[2] = tested on: HS 578T breast
[3] = tested on: PC-3 prostate
[4] = tested on: NCI-H460 lung
[5] = tested on: MOLT-4 leukemia
[6] = tested on: TK-10 renal
[7] = tested on: BT-549 breast
[8] = tested on: NCI-H23 lung
[9] = tested on: HCT-15 colon
[10] = tested on: K-562 leukemia

Row | SMILES | GI50 [1] [µM] | TGI [1] | GI50 [2] [µM] | TGI [2] [µM] | GI50 [3] [µM] | TGI [3] [µM] | GI50 [4] [µM] | TGI [4] | GI50 [5] [µM] | TGI [5] | GI50 [6] [µM] | TGI [6] [µM] | GI50 [7] [µM] | TGI [7] [µM] | GI50 [8] [µM] | TGI [8] | GI50 [9] [µM] | TGI [9] | GI50 [10] [µM] | TGI [10]
1 | COC(=O)CCCCCCCCC(=O)c1c(C)[nH]c(/C=C2\N=C(c3ccc[nH]3)C=C2OC)c1C | 6.38 | > 30.6 µM | > 33 | > 100 | 4.88 | > 100 | 3.57 | > 100 µM | 0.755 | > 43.6 µM | > 100 | > 100 | 3.39 | > 100 | > 100 | > 100 µM | 22.1 | > 57.7 µM | 1.08 | > 34.2 µM
2 | CCN(CC)CCn1nc2c3c(cccc3c1=O)-c1ccccc1-2 | 3.19 | 24.2 µM | 11.2 | > 50 | 3.55 | 23.6 | 1.49 | > 50 µM | 1.44 | 8.46 µM | 2.09 | 34.4 | 6.16 | 15.1 | 1.82 | 8.98 µM | 1.44 | 13.3 µM | 2.03 | > 50 µM
3 | C=C1C(=O)O[C@H]2[C@H]1CC/C(COC(=O)c1ccc(Br)cc1)=C\CC[C@@]1(C)O[C@@H]21 | 0.543 | 3.85 µM | 2.51 | 7.64 | 1.69 | 3.19 | 1.99 | 4.3 µM | 1.17 | 6.06 µM | 1.9 | 3.33 | 1.3 | 3.01 | 1.6 | 3.41 µM | 1.1 | 3.06 µM | 1.2 | 10.3 µM
4 | CCCCOc1nc2ccccc2cc1C1CNC(=O)c2ccccc2N1 (configuration not stated) | 2.81 | 16 µM | 2.63 | 19 | 2.95 | 13.9 | 3.16 | 11.5 µM | 2.95 | 13.5 µM | 5.92 | 22.1 | 4.17 | 23.2 | 5.19 | 35.1 µM | 2.3 | 11.3 µM | 1.26 | 14.2 µM
5 | NS(=O)(=O)c1ccc(N=Nc2cc3ccccc3c(C(=O)O)c2O)cc1 |  | > 100 µM |  | > 100 |  | > 90.3 |  | > 87.5 µM |  | > 100 µM |  | > 80.6 |  | > 100 |  | > 100 µM |  | > 100 µM |  | > 100 µM
6 | Cn1cc(C2=C(c3cn(C)c4cc(Cl)ccc34)C(=O)NC2=O)c2ccccc21 | 0.0939 | > 15.2 µM | 0.0731 | 1.93 | 0.0796 | > 25 | 0.0961 | > 8.9 µM | 0.345 | > 25 µM | 3.81 | > 25 | 0.623 | > 25 | 0.106 | 9.1 µM | 0.103 | > 25 µM | 0.089 | > 25 µM
7 | CCc1cc(Nc2nccc(-c3c(-c4ccc(OC)c(C(=O)Nc5c(F)cccc5F)c4)nc4ccccn34)n2)c(OC)cc1N1CCC(N2CCN(S(C)(=O)=O)CC2)CC1 | > 100 | > 100 µM | > 100 | > 100 | > 100 | > 100 | > 71.7 | > 100 µM | > 100 | > 100 µM | > 90.4 | > 100 | > 100 | > 100 | > 100 | > 100 µM | > 100 | > 100 µM | > 100 | > 100 µM
8 | Nc1cc2ccncc2c2ccccc12 | 11.6 | 63.5 µM | 13.9 | 40.4 | 16.2 | > 100 | 8.78 | 70.6 µM | 5.35 | > 100 µM | 20.2 | 91.1 | 23.9 | > 100 | 16.7 | 80.1 µM | 11.8 | > 100 µM | 13.5 | 73 µM
9 | CCCCCCCC(=O)O[C@H]1[C@H]2[C@@H](CC1(C)C)C(=O)[C@]13O[C@H]1C(=O)[C@]1(CO1)[C@]23C | 2.95 | 18.3 µM and 3.34 µM |  | > 100 |  | 30.8 | 20 | 42.6 µM and 12.8 µM | 1.17 | 10.9 µM and 2.68 µM |  | 6.47 |  | 28.8 | 12.5 | 28.4 µM and 8.51 µM |  | 8.26 µM and 7.9 µM | 1.52 | 5.13 µM and 5.3 µM
10 | Fc1ccc(-c2ncn(C3CCNCC3)c2-c2ccnc(Oc3ccc(Oc4ccccc4)cc3)n2)cc1 | 4.99 | 9.91 µM | 1.73 | 6.89 | 3.49 | 6.87 | 3.66 | 7.28 µM | 3.31 | 7.59 µM | 4.35 | 7.98 | 3.75 | 7.1 | 4.08 | 7.9 µM | 3.55 | 7.29 µM | 1.95 | 5.74 µM
11 | COc1ccc(C2C3=C(COC3=O)N(CCO)c3cc4c(cc32)CCC4)cc1OC (configuration not stated) | 2.64 | > 50 µM | 0.454 | > 15 | 0.524 | > 50 | 0.336 | > 29.5 µM | 2.1 | > 50 µM |  | > 50 | 3.42 | > 50 | 1.36 | > 50 µM | 1.65 | > 50 µM | 0.47 | > 50 µM
12 | O=C1c2ccccc2-c2c1c1ccccc1c(=O)n2CCCNCCO | 0.241 | 1.76 µM | 0.589 | 5.04 | 0.752 | 4.47 | 0.111 | 1.56 µM | 0.0879 | 0.522 µM | 1.33 | 7.44 | 1.65 | 5.9 | 0.818 | 4.97 µM | 0.554 | 6.13 µM | 0.284 | 7.95 µM
13 | CCN(CC)c1ccc(/C=C2/NC(=O)NC2=O)cc1 | 5.34 | > 100 µM | 1.23 | > 28 | 12.1 | > 100 | 4.44 | > 100 µM | 17.6 | > 100 µM | 9.56 | > 100 | 7.49 | > 100 | 7.97 | > 100 µM | 3.21 | > 100 µM | 0.671 | > 100 µM
14 | O=C(N/N=C\c1cc(Br)cc(Br)c1O)N/N=C/c1cc(Br)cc(Br)c1O | 2.72 | 10.6 µM | 19.8 | 51.2 | 2.9 | 16.7 | 3.11 | 11.5 µM | 2.14 | 11.4 µM | 10.6 | 26.2 | 5.54 | 25.7 | 6.21 | 23.5 µM | 2.77 | 16.1 µM | 0.7 | 14.3 µM
15 | O=C(Nc1ccc(I)cc1F)c1cc(F)ccc1O | 0.253 | 0.888 µM | 0.44 | 5.29 | 0.843 | 6.4 | 0.456 | > 27.7 µM | 0.611 | 2.59 µM | 1.59 | 24.2 | 0.301 | 1.05 | 0.379 | 4.04 µM | 0.499 | > 27.1 µM | 0.407 | > 42.1 µM
16 | COc1ccc(OC)c(/C=C/C(=O)c2ccc(SC)cc2)c1 | 1.66 | 7.05 µM | 3.81 | > 100 | 3.49 | 14.9 | 3.82 | 17.6 µM | 3.26 | > 100 µM | 17.9 | 65.7 | 2.8 | 7.01 | 2.77 | 7.6 µM | 13.8 | 36.6 µM | 2.72 | 7.44 µM
17 | BrCC[N+]12CCCN1CCC2 |  | 8.38 µM |  | 26.9 |  | 31.2 |  | 48.9 µM |  | 12.9 µM |  | 27.9 |  | 31.3 |  | 36.6 µM |  | 28.2 µM |  | 8.46 µM
18 | CN1CCN(Cc2ccc(NC(=O)c3cncc(C#Cc4cncc5[nH]ncc45)c3)cc2C(F)(F)F)CC1 | 0.761 | 2.48 µM | 0.523 | 2.45 | 1.14 | 5.68 | 1.19 | 5.6 µM | 0.773 | 4.44 µM | 1.38 | 5.43 | 1.39 | 5.58 | 0.488 | 4.29 µM | 1.69 | 6.14 µM | 0.005 | 1.64 µM
19 | CC(=O)O[C@H]1Cc2c([nH]c3ccccc23)[C@@H](c2ccc(Cl)cc2)N1C(=O)CCNC(C)(C)C | 2.83 | 13.6 µM | 3.76 | 13 | 3.48 | 8.12 | 4.26 | 10.4 µM | 2.16 | 8.99 µM | 5.75 | 10.5 | 4 | 8.27 | 5.12 | 10.5 µM | 4.05 | 8.32 µM | 3.08 | 10.1 µM
20 | COC(=O)C1=C(C)NC(C)=C(C(=O)OC)C1c1ccccc1[N+](=O)[O-] | 47.6 | > 100 µM | 32.4 | > 100 | 50.3 | > 100 | 97.6 | > 100 µM | 78.2 | > 100 µM | > 100 | > 100 | > 100 | > 100 | > 100 | > 100 µM | 65.8 | > 100 µM | 78.8 | > 100 µM
21 | CCn1c(-c2nonc2N)nc2c(C#CC(C)(C)O)ncc(OCC3CCNCC3)c21 | > 25 | > 25 µM | 3.83 | 15.4 | 7.48 | > 25 | 18.2 | > 25 µM | 8.3 | > 25 µM | 8.28 | > 25 | 11 | > 25 | > 19.2 | > 25 µM | 16.5 | > 25 µM | > 25 | > 25 µM
22 | CO[C@H]1/C=C/C=C/C=C/C[C@H](OC(=O)[C@@H](C)NC(=O)C2CCCCC2)[C@H](C)[C@@H](O)/C(C)=C\CCC2=CC(=O)C=C(NC(=O)C1)C2=O | 0.111 | 0.327 µM | 0.119 | 0.59 | 0.128 | 0.896 | 0.111 | 1.14 µM | 0.142 | 7.04 µM | 0.274 | 2.31 | 0.172 | 1.38 | 0.115 | 0.812 µM | 0.336 | 5.57 µM | 0.177 | > 50 µM
23 | CCN(Cc1cccc(C)c1)c1ccc(CO)c(Cl)c1 | 6.2 | 31.2 µM | 15.2 | 37.7 | 12.6 | 26.1 | 0.513 | 14.5 µM | 18.5 | > 64.3 µM | 0.113 | 0.36 | 13.4 | 27.2 | 10.1 | 25.5 µM | 12.1 | 33.1 µM | 3.98 | 44.6 µM
24 | NC(=S)c1cn(C2OC(CO)C(O)C2O)c2ncnc(N)c12 (configuration not stated) | 0.099 | 0.448 µM | 0.254 | 2.54 | 0.283 | > 20.1 | 0.212 | 8.15 µM | 0.0386 | 0.261 µM | 0.185 | 0.827 | 0.149 | 1.65 | 0.139 | 0.677 µM | 0.191 |  | 0.199 | 
25 | COc1ccc2c(c1)/C(=N/OC(C)=O)c1c-2c(Nc2ccc(/C(C)=N/OC(C)=O)cc2)nc2ccccc12 | 29.2 | 79.7 µM | 66 | > 100 | 18.8 | 38.4 | 35.7 | > 100 µM | 26.1 | 72.8 µM | > 100 | > 100 | > 100 | > 100 | 35.5 | > 100 µM | 57.5 | > 100 µM | 40.4 | > 100 µM
